For data set [1], the system named is Mus musculus. As to the kind of experiment: Neurotoxicity in albino CF1 mouse assessed as minimal motor impairment at 30 mg/kg, ip after 0.5 hrs by rotarod test. It counts as toxicity, organism-based. Further details: dose 30 mg/kg, route intraperitoneal. Conditions: in vivo.
The test system of data set [2] is Mus musculus. Kind of data set: Anticonvulsant activity in albino CF1 mouse assessed as protection against maximal electroshock-induced seizures at 30 mg/kg, ip after 4 hrs. The format is functional, organism-based. More on the design: dose 30 mg/kg. (In general: Protection in the maximal electroshock model is a classic sign of anticonvulsant action.)
Data set [3] deals with Mus musculus. Kind of data set: Neurotoxicity in albino CF1 mouse assessed as minimal motor impairment at 30 to 300 mg/kg, ip after 0.5 hrs by rotarod test. Particulars: in vivo.
Data set [4] concerns Mus musculus. As to the kind of experiment: Anticonvulsant activity in albino CF1 mouse assessed as protection against maximal electroshock-induced seizures at 30 mg/kg, ip after 0.5 hrs. The format is functional, organism-based. Further details: dose 30 mg/kg.
For data set [5], the system named is Mus musculus. Kind of data set: Anticonvulsant activity in albino CF1 mouse assessed as protection against maximal electroshock-induced seizures at 100 mg/kg, ip after 0.5 hrs. More on the design: dose 100 mg/kg. It counts as functional, organism-based.
For data set [6], the system named is Mus musculus. Kind of data set: Anticonvulsant activity in albino CF1 mouse assessed as protection against subcutaneous metrazole-induced seizures at 100 mg/kg, ip after 4 hrs. It counts as functional, organism-based. More on the design: dose 100 mg/kg.
For data set [7], the system named is Mus musculus. As to the kind of experiment: Anticonvulsant activity against maximal electroshock-induced seizures in ip dosed albino CF1 mouse assessed as minimum effective dose after 0.5 hrs. It counts as functional. Particulars: read-out: MED.
Data set [8] relates to Mus musculus. Kind of data set: Neurotoxicity in albino CF1 mouse assessed as minimal motor impairment at 100 mg/kg, ip after 0.5 hrs by rotarod test. The format is toxicity, organism-based. Particulars: in vivo. More on the design: dose 100 mg/kg, route intraperitoneal. A general note: The rotarod test checks motor coordination on a turning rod.
In data set [9] the test system is Mus musculus. Kind of data set: Neurotoxicity in albino CF1 mouse assessed as minimal motor impairment at 100 mg/kg, ip after 4 hrs by rotarod test. The format is toxicity, organism-based. Conditions: in vivo. More on the design: dose 100 mg/kg, route intraperitoneal.
In data set [10] the test system is Mus musculus. Kind of data set: Anticonvulsant activity against subcutaneous metrazole-induced seizures in ip dosed albino CF1 mouse assessed as minimum effective dose after 0.5 hrs. The format is functional. Particulars: albino CF1, 0.5 h, read-out: MED.
Data set [11] relates to Mus musculus. As to the kind of experiment: Anticonvulsant activity in albino CF1 mouse assessed as protection against maximal electroshock-induced seizures at 300 mg/kg, ip after 4 hrs. It counts as functional, organism-based. Further details: dose 300 mg/kg.
The test system of data set [12] is Mus musculus. Kind of data set: Anticonvulsant activity in albino CF1 mouse assessed as protection against subcutaneous metrazole-induced seizures at 30 mg/kg, ip after 4 hrs. It counts as functional, organism-based. More on the design: dose 30 mg/kg.
Data set [13] relates to Mus musculus. As to the kind of experiment: Neurotoxicity in ip dosed albino CF1 mouse assessed as minimum dose required to cause toxicity after 4 hrs by rotarod test. The format is organism-based. Particulars: in vivo.
Data set [14] has as its system Mus musculus. As to the kind of experiment: Neurotoxicity in albino CF1 mouse assessed as minimal motor impairment at 30 to 300 mg/kg, po after 4 hrs by rotarod test. It counts as toxicity, organism-based. Further details: dose 30-300 mg/kg, route oral. Conditions: in vivo.
The subject of data set [15] is Mus musculus. Kind of data set: Neurotoxicity in albino CF1 mouse assessed as minimal motor impairment at 300 mg/kg, ip after 4 hrs by rotarod test. It counts as toxicity, organism-based. More on the design: dose 300 mg/kg, route intraperitoneal. Conditions: in vivo.
In data set [16] the test system is Mus musculus. Kind of data set: Neurotoxicity in albino CF1 mouse assessed as minimal motor impairment at 30 mg/kg, ip after 4 hrs by rotarod test. Particulars: in vivo. More on the design: dose 30 mg/kg, route intraperitoneal. The format is toxicity, organism-based.
For data set [17], the system named is Mus musculus. Kind of data set: Neurotoxicity in ip dosed albino CF1 mouse assessed as minimum dose required to cause toxicity after 0.5 hrs by rotarod test. It counts as organism-based. Particulars: in vivo.
In data set [18] the test system is Mus musculus. As to the kind of experiment: Anticonvulsant activity in albino CF1 mouse assessed as protection against subcutaneous metrazole-induced seizures at 100 mg/kg, ip after 0.5 hrs. More on the design: dose 100 mg/kg. The format is functional, organism-based.
Data set [19] relates to Mus musculus. Kind of data set: Anticonvulsant activity against maximal electroshock-induced seizures in ip dosed albino CF1 mouse assessed as minimum effective dose after 4 hrs. It counts as functional. Conditions: read-out: MED.
The test system of data set [20] is Mus musculus. Kind of data set: Anticonvulsant activity in albino CF1 mouse assessed as protection against subcutaneous metrazole-induced seizures at 30 mg/kg, ip after 0.5 hrs. Further details: dose 30 mg/kg. The format is functional, organism-based.
The subject of data set [21] is Mus musculus. Kind of data set: Anticonvulsant activity against subcutaneous metrazole-induced seizures in ip dosed albino CF1 mouse assessed as minimum effective dose after 4 hrs. The format is functional. Particulars: albino CF1, 4 h, read-out: MED.
The test system of data set [22] is Mus musculus. As to the kind of experiment: Anticonvulsant activity in albino CF1 mouse assessed as protection against maximal electroshock-induced seizures at 300 mg/kg, ip after 0.5 hrs. Further details: dose 300 mg/kg. It counts as functional, organism-based.
The test system of data set [23] is Mus musculus. As to the kind of experiment: Anticonvulsant activity in albino CF1 mouse assessed as protection against maximal electroshock-induced seizures at 100 mg/kg, ip after 4 hrs. The format is functional, organism-based. More on the design: dose 100 mg/kg.
For data set [24], the system named is Mus musculus. As to the kind of experiment: Anticonvulsant activity in albino CF1 mouse assessed as protection against subcutaneous metrazole-induced seizures at 300 mg/kg, ip after 0.5 hrs. Further details: dose 300 mg/kg. It counts as functional, organism-based.
The test system of data set [25] is Mus musculus. Kind of data set: Anticonvulsant activity in albino CF1 mouse assessed as protection against subcutaneous metrazole-induced seizures at 300 mg/kg, ip after 4 hrs. More on the design: dose 300 mg/kg. The format is functional, organism-based.
In data set [26] the test system is Mus musculus. Kind of data set: Neurotoxicity in albino CF1 mouse assessed as minimal motor impairment at 300 mg/kg, ip after 0.5 hrs by rotarod test. The format is toxicity, organism-based. More on the design: dose 300 mg/kg, route intraperitoneal. Conditions: in vivo.

Activity calls are given as the source filed them. The rule behind the calls is not given here.

The values that follow come from ChEMBL document CHEMBL1275354, “Anticonvulsant activity of 2,4(1H)-diarylimidazoles in mice and rats acute seizure models” (Bioorg Med Chem, 2010).

As for `COc1cccc(-c2nc(-c3ccccc3)c[nH]2)c1`, the Activity entry is listed as “Non-toxic” in [1]; “Non-toxic” in data set [3]; “Toxic” in [8]; “Non-toxic” in data set [9]; “Non-toxic” in data set [14]; “Non-toxic” in data set [15]. For the same compound, in [16], the Activity entry is given as “Non-toxic”. For the same compound, the result in data set [2], in [4], in [6], in [12], in [18] and in [20] was inactive. Besides, the result in data set [5], in data set [11] and in [22] was Active. The minimal effective dose is > 30 mg/kg in [7], > 300 mg/kg in data set [10], 100 mg/kg in data set [19] and > 300 mg/kg in data set [21]. Besides, the figures for the MED in data set [13] and in data set [17] were > 300 mg/kg and > 30 mg/kg, respectively.
Consider `c1ccc(-c2c[nH]c(C3CCCCC3)n2)cc1`, for which the Activity result in data set [1], in data set [3], in data set [9], in [14], in data set [15] and in data set [16] was “Non-toxic” each time. The outcome in [2], in data set [4], in data set [5], in data set [6], in [11] and in [12] was inactive. The result in data set [23] and in data set [20] was inactive. Besides, the minimal effective dose in data set [7], in [10], in [19] and in data set [21] was > 300 mg/kg each time. Moreover, the values for the MED in data set [13] and in data set [17] were > 300 mg/kg and 100 mg/kg, respectively.
Turning to `Clc1cccc(-c2nc(-c3ccccc3)c[nH]2)c1`, the Activity result in data set [1], in data set [3], in data set [8], in [9], in data set [14] and in data set [15] was “Non-toxic” each time. Moreover, the Activity entry in data set [16] was “Non-toxic”. Also, the outcome in data set [24], in [11] and in data set [22] was Active. In addition, the outcome in [2], in data set [4], in data set [6], in data set [12], in data set [25] and in [18] was inactive. Besides, the outcome in [23] and in data set [20] was inactive. The minimal effective dose in [7] was 100 mg/kg; in data set [10], 100 mg/kg; in data set [19] it was 100 mg/kg; in [21], > 300 mg/kg. Also, the MED in [13] was > 300 mg/kg; in [17], 100 mg/kg.
As for `FC(F)(F)c1ccc(-c2c[nH]c(-c3ccccc3)n2)cc1`, the Activity entry in data set [1] was “Non-toxic”; in [3], “Non-toxic”; in data set [9], “Non-toxic”; in data set [14], “Non-toxic”; in data set [15], “Toxic”; in [16], “Non-toxic”. Further, the outcome in data set [24], in data set [2], in [4], in data set [6], in data set [12] and in data set [18] was inactive. Moreover, the result in [23] and in [20] was inactive. The minimal effective dose is 100 mg/kg in data set [7], > 300 mg/kg in [10], > 300 mg/kg in [19] and 100 mg/kg in data set [21]. In addition, the MED in [13] and in data set [17] was 100 mg/kg in each case. Moreover, the outcome in [25] and in data set [22] was Active.
For the compound `c1ccc(-c2c[nH]c(-c3ccncc3)n2)cc1`, the Activity result in [1] is “Non-toxic”; in data set [3], “Non-toxic”; in [26], “Toxic”; in data set [9], “Non-toxic”; in [15], “Toxic”; in data set [16], “Non-toxic”. The outcome in data set [24], in data set [2], in data set [4], in [6], in [12] and in [18] was inactive. Moreover, the outcome in [20] was inactive. For the same compound, the minimal effective dose is 100 mg/kg in data set [7], > 300 mg/kg in data set [10], 100 mg/kg in data set [19] and > 300 mg/kg in data set [21]. Also, the result in data set [11] and in data set [22] was Active. In addition, the MED in data set [13] and in [17] was 100 mg/kg each time.
`c1ccc(-c2c[nH]c(-c3cc4ccccc4o3)n2)cc1`: the Activity result in [1], in data set [3], in data set [9], in [14] and in data set [16] was “Non-toxic” each time. Besides, the outcome in data set [24], in data set [2], in data set [4], in [5], in [6] and in data set [11] was inactive. Further, the result in data set [12], in [25], in [18], in [23], in data set [20] and in data set [22] was inactive. For the same compound, the minimal effective dose in [7], in [10], in data set [19] and in [21] was > 300 mg/kg in each case. Besides, the MED in data set [13] and in data set [17] was > 300 mg/kg in each case.
`c1ccc(-c2c[nH]c(-c3ccsc3)n2)cc1`: the Activity entry in data set [1], in [3], in data set [9], in [14] and in [16] was “Non-toxic” in each case. Besides, the outcome in data set [24], in [2], in data set [4], in [6], in [12] and in [25] was inactive. In addition, the outcome in [18], in data set [23] and in data set [20] was inactive. Further, the result in data set [5] and in [22] was Active. Besides, the minimal effective dose in data set [7] was 100 mg/kg; in data set [10], > 300 mg/kg; in data set [19], > 300 mg/kg; in data set [21], > 300 mg/kg. Besides, the MED is > 300 mg/kg in data set [13] and 100 mg/kg in [17].
